# Read-outs that look alike come from different tables or passages of the source. Where a SMILES comes first, the peptide text is derived from it.
# What was measured:
# P. aeruginosa 4007 = assay: microbe, parasite or virus in culture; conditions: for MIC: Pseudomonas aeruginosa, 4007, 18 h, read-out: Minimal inhibitory concentration
# Procedure: (§1) In order to evaluate the antimicrobial activity of the peptides prepared by the method of above 1, a minimal inhibitory concentration (MIC) value as the minimum concentration of a peptide, in which cells are not divided, was measured.
# (§2) Specifically, the strains shown in Table 3 below were purchased, cultured in a medium having a constitutional composition suitable for each strain to a mid-log phase, and then diluted to a concentration of 2×10^4 cells/100 μl to prepare the product on a micro-titration plate (Nunc, USA). Then, PEP27, PEP27-1, PEP27-2 or PEP27-5 peptide synthesized in the above 1 was added to each well by serial dilution ½ times, followed by incubation at 37° C. for 18 hours.
# (§3) Specifically, subject strains were prepared by the method of above 2, and were treated with the antibiotics, that is, meropenem, ceftazidime, ceftriaxone or vancomycin, respectively, followed by determining MICs of the antibiotics.
# P. aeruginosa 4891 = assay: microbe, parasite or virus in culture; conditions: for MIC: Pseudomonas aeruginosa, 4891, 18 h, read-out: Minimal inhibitory concentration
# Procedure: as §1, §2, §3
# P. aeruginosa ATCC15692 = assay: microbe, parasite or virus in culture; conditions: ATCC15692, 18 h; for MIC: Pseudomonas aeruginosa, read-out: Minimal inhibitory concentration
# Procedure: as §1, §2, §3
# P. aeruginosa ATCC27853 = assay: microbe, parasite or virus in culture; conditions: ATCC27853, 18 h; for MIC: Pseudomonas aeruginosa, read-out: Minimal inhibitory concentration
# Procedure: as §1, §2, §3
# S. aureus ATCC25923 = assay: microbe, parasite or virus in culture; conditions: ATCC25923, 18 h; for MIC: Staphylococcus aureus, read-out: Minimal inhibitory concentration
# Procedure: as §1, §2, §3
# S. aureus ATCC29213 = assay: microbe, parasite or virus in culture; conditions: ATCC29213, 18 h; for MIC: Staphylococcus aureus, read-out: Minimal inhibitory concentration
# Procedure: as §1, §2, §3
# S. aureus CCARM3089 = assay: microbe, parasite or virus in culture; conditions: for MIC: Staphylococcus aureus, CCARM3089, 18 h, read-out: Minimal inhibitory concentration
# Procedure: as §1, §2, §3
# S. aureus CCARM3090 = assay: microbe, parasite or virus in culture; conditions: for MIC: Staphylococcus aureus, CCARM3090, 18 h, read-out: Minimal inhibitory concentration
# Procedure: as §1, §2, §3
# S. aureus CCARM3518 = assay: microbe, parasite or virus in culture; conditions: for MIC: Staphylococcus aureus, CCARM3518, 18 h, read-out: Minimal inhibitory concentration
# Procedure: as §1, §2, §3
# S. aureus MW2 = assay: microbe, parasite or virus in culture; conditions: for MIC: Staphylococcus aureus, MW2, 18 h, read-out: Minimal inhibitory concentration
# Procedure: as §1, §2, §3
# S. aureus USA300 = assay: microbe, parasite or virus in culture; conditions: for MIC: Staphylococcus aureus, USA300, 18 h, read-out: Minimal inhibitory concentration
# Procedure: as §1, §2, §3
# B. subtilis KCTC1998 = format: cell-based, Bacillus subtilis; conditions: KCTC1998, 18 h
# Procedure: as §1, §2
# L. monocytogens KCTC3710 = format: cell-based, Listeria monocytogenes; conditions: KCTC3710, 18 h
# Procedure: as §1, §2
# E. coli ATCC25922 = format: cell-based, Escherichia coli; conditions: ATCC25922, 18 h
# Procedure: as §1, §2
# E. coli ATCC27325 = format: cell-based, Escherichia coli; conditions: ATCC27325, 18 h
# Procedure: as §1, §2
# E. coli CCARM1229 = format: cell-based, Escherichia coli; conditions: E. coli CCARM1229, antibiotics-tolerant; 37° C., 18 hours
# Procedure: as §1, §2
# E. coli CCARM1238 = format: cell-based, Escherichia coli; conditions: E. coli CCARM1238, antibiotics-tolerant; 37° C., 18 hours
# Procedure: as §1, §2
# [1] = test system: Sa. typhimurium CCARM8007; format: cell-based, Salmonella typhimurium; conditions: Sa. typhimurium CCARM8007, antibiotics-tolerant; 37° C., 18 hours
# Procedure: as §1, §2
# [2] = test system: Sa. typhimurium CCARM8009; format: cell-based, Salmonella typhimurium; conditions: Sa. typhimurium CCARM8009, antibiotics-tolerant; 37° C., 18 hours
# Procedure: as §1, §2
# Sa. typhimurium KCTC1926 = format: cell-based, Salmonella typhimurium; conditions: KCTC1926, 18 h
# Procedure: as §1, §2
# [3] = test system: red blood cells of a rat (Balb/c); conditions: 37° C., 1 hour
# Procedure: In order to compare the cytotoxicity of the peptides prepared by the method of above 1, erythrocyte hemolytic activity of each of the synthesized peptides was measured.
# Specifically, red blood cells of a rat (Balb/c, 6 weeks old, female) were diluted with PBS (pH 7.0) to a concentration of 8%, and PEP27, PEP27-1, PEP27-2 and PEP27-5 peptides were used for treatment of the cells at concentrations of 3.13, 6.25, 12.5, 25.01 50.0 and 100.0 μM/well, respectively, followed by reaction at 37° C. for 1 hour. Then, an amount of hemoglobin contained in the supernatant obtained by centrifugation at 1,000×g was determined by measuring the absorbance at a wavelength of 414 nm. As a control which is a standard for the degree of cell destruction, the absorbance of the obtained supernatant was measured after treatment using 1% Triton X-100 (Sigma, USA) and reaction at 37° C. for 1 hour. With reference to 100% erythrocytes hemolysis activity, hemolysis of each peptide was calculated from the measured absorbance using Equation 1 below. Erythrocyte destruction ability (%)=(Absorbance A−Absorbance B)/(Absorbance C−Absorbance B)×100 [Equation 1]
# (wherein, absorbance A represents the absorbance of a reaction solution treated with each peptide measured at a wavelength of 414 nm; absorbance B represents the absorbance of a reaction solution treated with PBS measured at a wavelength of 414 nm; and absorbance C represents the absorbance of a reaction solution treated with 1% Triton X-100 measured at a wavelength of 414 nm).
# HaCaT and MCF-7 cells = assay: MTT cytotoxicity; format: cell-based, human; conditions: 100 μM, 24 h, MTT, HaCaT and MCF-7 cells
# Procedure: Specifically, Thiazolyl blue tetrazolium bromide (MTT, Merck KGaA) was used to determine the cytotoxicity of PEP27 and its analogs against HaCaT (human keratinocyte […], n=4 per condition) and MCF-7 (human breast adenocarcinoma, n=3 per condition) cells. The cells were cultured in Dulbecco's modified Eagle's medium (DMEM) supplemented with 10 heat-inactivated fetal bovine serum (FBS, Gibco, Grand Island, NY, USA) and 1% penicillin-streptomycin (Gibco) at a density of 2×10^4 cells/well (96-well plate). Peptides were then added at various concentrations and incubated for 24 h at 37° C., after which MTT (final concentration, 0.5 mg/mL) was added to each well and incubated for 4 h. The formazan product was solubilized in DMSO, and the absorbance at 570 nm was measured to […] cytotoxicity. Cells treated with 0.1% Triton X-100 were used as the 100% cytotoxic control sample.
structure (smiles),measurement,setting,value
"CC(C)(O/N=C(\C(=O)N[C@@H]1C(=O)N2C(C(=O)[O-])=C(C[n+]3ccccc3)CS[C@H]12)c1csc(N)n1)C(=O)O [Ceftazidime, ceftazidime]",MIC,P. aeruginosa 4007,16 µM
same,MIC,P. aeruginosa 4891,16 µM
same,MIC,P. aeruginosa ATCC15692,4 µM
same,MIC,P. aeruginosa ATCC27853,2 µM
same,MIC,S. aureus ATCC25923,16 µM
same,MIC,S. aureus ATCC29213,3 µM
same,MIC,S. aureus CCARM3089,512 µM
same,MIC,S. aureus CCARM3090,512 µM
same,MIC,S. aureus CCARM3518,64 µM
same,MIC,S. aureus MW2,32 µM
same,MIC,S. aureus USA300,32 µM
"C[C@@H](O)[C@H]1C(=O)N2C(C(=O)O)=C(S[C@@H]3CN[C@H](C(=O)N(C)C)C3)[C@H](C)[C@H]12 [Meropenem, meropenem]",MIC,P. aeruginosa 4007,4 µM
same,MIC,P. aeruginosa 4891,8 µM
same,MIC,P. aeruginosa ATCC15692,2 µM
same,MIC,P. aeruginosa ATCC27853,2 µM
same,MIC,S. aureus ATCC25923,2 µM
same,MIC,S. aureus ATCC29213,2 µM
same,MIC,S. aureus CCARM3089,64 µM
same,MIC,S. aureus CCARM3090,128 µM
same,MIC,S. aureus CCARM3518,64 µM
same,MIC,S. aureus MW2,2 µM
same,MIC,S. aureus USA300,2 µM
CSCC[C@H](N)C(=O)N[C@@H](Cc1c[nH]c2ccccc12)C(=O)N[C@@H](CCCCN)C(=O)N[C@@H](Cc1c[nH]c2ccccc12)C(=O)N[C@@H](Cc1ccccc1)C(=O)N[C@@H](Cc1c[nH]cn1)C(=O)N[C@@H](CC(N)=O)C(=O)N[C@H](C(=O)N[C@@H](CC(C)C)C(=O)N[C@@H](CO)C(=O)N[C@@H](CO)C(=O)NCC(=O)N[C@@H](CCC(N)=O)C(=O)N[C@@H](CC(C)C)C(=O)N[C@@H](CC(C)C)C(=O)N[C@@H](C)C(=O)N[C@@H](CC(=O)O)C(=O)N[C@@H](CCCCN)C(=O)N[C@@H](CCCNC(=N)N)C(=O)N1CCC[C@H]1C(=O)N[C@@H](C)C(=O)N[C@@H](CCCNC(=N)N)C(=O)N[C@@H](CC(=O)O)C(=O)N[C@@H](Cc1ccc(O)cc1)C(=O)N[C@@H](CC(N)=O)C(=O)N[C@@H](CCCNC(=N)N)C(=O)N[C@@H](CCCCN)C(N)=O)C(C)C [PEP27-1] (H-MWKWFHNVLSSGQLLADKRPARDYNRK-NH2),Minimal inhibitory concentration,B. subtilis KCTC1998,32 µM
same,Minimal inhibitory concentration,L. monocytogens KCTC3710,64 µM
same,Minimal inhibitory concentration,E. coli ATCC25922,64 µM
same,Minimal inhibitory concentration,E. coli ATCC27325,32 µM
same,Minimal inhibitory concentration,E. coli CCARM1229,32 µM
same,Minimal inhibitory concentration,E. coli CCARM1238,32 µM
same,Minimal inhibitory concentration,"P. aeruginosa 4007; 4007, 18 h",32 µM
same,Minimal inhibitory concentration,"P. aeruginosa 4891; 4891, 18 h",32 µM
same,Minimal inhibitory concentration,P. aeruginosa ATCC15692,32 µM
same,Minimal inhibitory concentration,P. aeruginosa ATCC27853,32 µM
same,Minimal inhibitory concentration,S. aureus ATCC25923,32 µM
same,Minimal inhibitory concentration,S. aureus ATCC29213,32 µM
same,Minimal inhibitory concentration,"S. aureus CCARM3089; S. aureus CCARM3089, antibiotics-tolerant, 37° C., 18 hours",32 µM
same,Minimal inhibitory concentration,"S. aureus CCARM3090; S. aureus CCARM3090, antibiotics-tolerant, 37° C., 18 hours",16 µM
same,Minimal inhibitory concentration,"S. aureus CCARM3518; S. aureus CCARM3518, antibiotics-tolerant, 37° C., 18 hours",32 µM
same,Minimal inhibitory concentration,"S. aureus MW2; S. aureus MW2, antibiotics-tolerant, 37° C., 18 hours",32 µM
same,Minimal inhibitory concentration,"S. aureus USA300; S. aureus USA300, antibiotics-tolerant, 37° C., 18 hours",32 µM
same,Minimal inhibitory concentration,[1],32 µM
same,Minimal inhibitory concentration,[2],32 µM
same,Minimal inhibitory concentration,Sa. typhimurium KCTC1926,32 µM
same,Erythrocyte destruction ability,[3]; Peptide concentration 3.13 μM,0%
same,Erythrocyte destruction ability,[3]; Peptide concentration 6.25 μM,1.05%
same,Erythrocyte destruction ability,[3]; Peptide concentration 12.5 μM,1.97%
same,Erythrocyte destruction ability,[3]; Peptide concentration 25 μM,25.75%
same,Erythrocyte destruction ability,[3]; Peptide concentration 50 μM,44.51%
same,Erythrocyte destruction ability,"[3]; Peptide concentration 100 μM, 100% = 1% Triton X-100",50.65%
same,cell viability,HaCaT and MCF-7 cells,41%-42%
"CN[C@H](CC(C)C)C(=O)N[C@H]1C(=O)N[C@@H](CC(N)=O)C(=O)N[C@H]2C(=O)N[C@H]3C(=O)N[C@H](C(=O)N[C@H](C(=O)O)c4cc(O)cc(O)c4-c4cc3ccc4O)[C@H](O)c3ccc(c(Cl)c3)Oc3cc2cc(c3O[C@@H]2O[C@H](CO)[C@@H](O)[C@H](O)[C@H]2O[C@H]2C[C@](C)(N)[C@H](O)[C@H](C)O2)Oc2ccc(cc2Cl)[C@H]1O [Vancomycin, vancomycin]",MIC,P. aeruginosa 4007,512 µM
same,MIC,P. aeruginosa 4891,512 µM
same,MIC,P. aeruginosa ATCC15692,512 µM
same,MIC,P. aeruginosa ATCC27853,256 µM
same,MIC,S. aureus ATCC25923,0.25 µM
same,MIC,S. aureus ATCC29213,0.25 µM
same,MIC,S. aureus CCARM3089,0.25 µM
same,MIC,S. aureus CCARM3090,0.5 µM
same,MIC,S. aureus CCARM3518,0.25 µM
same,MIC,S. aureus MW2,0.25 µM
same,MIC,S. aureus USA300,0.25 µM

# From patent US12180252B2, “Peptide derived from PEP27 peptide and uses thereof” (priority 2021, dated 2024)
